Measurements: US8586505B2 (SDS Biotech K. K., priority 2009, dated 2013)
Read-outs that look alike come from different tables or passages of the source.

What was measured:
Format in all cases: in vivo
Phytophthora infestans = experiment: whole plant or invertebrate; settings: in Solanum lycopersicum, 96 h, read-out: Determination of control effect (preventive value)
Sphaerotheca fuliginea = experiment: Test of examining control effect on Sphaerotheca fuliginea (potted cucumber plants); settings: Podosphaera fuliginea, 336 h, 10% wettable powder adjusted to 125 ppm, 15 ml/pot sprayed on potted cucumber plants one day before spray inoculation, assessed after 14 days in greenhouse, read-out: Determination of control effect (preventive value) on Sphaerotheca fuliginea
Protocol: (§1) Calculation of Preventive Value: Preventive value={(untreated lesion area rate−treated lesion area rate)/untreated lesion area rate}×100
(§2) Using the thus calculated preventive value, the control effect of each compound was determined in accordance with the following standards.
(§3) High control effect: 100%≧preventive value≧60%
(§4) Low control effect: 60%>preventive value≧0%
Using a spray gun, an agent solution prepared by adjusting a 10% wettable powder of each sample compound to 125 ppm (hereinafter referred to as a “sample agent solution”) was sprayed to potted cucumber plants (variety: Sagamihanjiro, 2nd leave stage) in a concentration of 15 ml/pot. One day after the spraying, a conidial suspension of Sphaerotheca fuliginea (conidial concentration: 1.0×10^5 cells/ml) was applied to the plants by spray inoculation. The plants were left in a greenhouse for 14 days, so that they were fully infected with the aforementioned disease. Thereafter, the disease level on each leaf was compared with that on an untreated leaf, and the control effect of each compound was determined in the same manner as in Example 3(1).

[1] = tested on: Pseudoperonospora cubensis; experiment: Test of examining control effect on Pseudoperonospora cubensis (potted cucumber plants); settings: 96 h, 10% wettable powder adjusted to 125 ppm, 15 ml/pot sprayed on potted cucumber plants one day before spray inoculation, assessed after 1 day wet chamber and 3 days greenhouse, read-out: Determination of control effect (preventive value) on Pseudoperonospora cubensis
Protocol: as §1, §2, §3, §4
Using a spray gun, an agent solution prepared by adjusting a 10% wettable powder of each sample compound to 125 ppm (hereinafter referred to as a “sample agent solution”) was sprayed to potted cucumber plants (variety: Sagamihanjiro, 2.5 leave stage) in a concentration of 15 ml/pot. One day after the spraying, a conidial suspension of Pseudoperonospora cubensis (conidial concentration: 1.0×10^4 cells/ml) was applied to the plants by spray inoculation. After completion of the inoculation, the plants were left at 21° C. under wet chamber conditions for 1 day, and were then left in a greenhouse for 3 days, so that they were fully infected with the aforementioned disease. Thereafter, the disease level on each leaf was compared with that on an untreated leaf, and the control effect of each compound was determined in the same manner as in Example 3(1).

Row | SMILES | pest or weed control at 125 ppm (Phytophthora infestans) [%] | pest or weed control at 125 µg/mL (Sphaerotheca fuliginea) [%] | pest or weed control at 125 µg/mL [1] [%] | pest or weed control at 125 µg/mL (Sphaerotheca fuliginea; in Cucumis sativus) [%] | pest or weed control at 125 µg/mL ([1]; in Cucumis sativus) [%]
1 | C=CC(CC#Cc1ccc(F)cc1)Nc1ncnc2ccccc12 (centres unmarked) [compound 297] | 0 to 60 | 60 to 100 | 60 to 100 |  | 
2 | CC(CC#Cc1ccccc1C(F)(F)F)Nc1ncnc2ccccc12 (centres unmarked) [compound 274] | 60 to 100 | 60 to 100 | 60 to 100 |  | 
3 | Clc1cccc(C#CCCNc2ncnc3sccc23)c1 [compound 15] | 0 to 60 | 60 to 100 | 60 to 100 |  | 
4 | CC(CC#Cc1ccc(Cl)cc1C(F)(F)F)Nc1ncnc2ccc(F)cc12 (centres unmarked) [compound 345] | 0 to 60 | 60 to 100 | 60 to 100 |  | 
5 | COCc1ccccc1C#CCCNc1ncnc2c(C)cc(Cl)cc12 [compound 327] | 0 to 60 | 0 to 60 | 60 to 100 |  | 
6 | FC(F)OCc1ccccc1C#CCCNc1ncnc2ccccc12 [compound 134] | 60 to 100 | 60 to 100 | 60 to 100 |  | 
7 | COCc1ccccc1C#CCCNc1ncnc2cc(Cl)ccc12 [compound 312] | 0 to 60 | 60 to 100 | 60 to 100 |  | 
8 | COCc1ccccc1C#CCCNc1ncnc2ccc(-c3cccnc3)cc12 [compound 337] | 0 to 60 | 0 to 60 | 60 to 100 |  | 
9 | COCc1cccc(F)c1C#CCCNc1ncnc2ccccc12 [compound 141] | 60 to 100 | 60 to 100 | 60 to 100 |  | 
10 | COc1ccccc1C#CCCNc1ncnc2sccc12 [compound 21] | 60 to 100 | 0 to 60 | 60 to 100 |  | 
11 | COCc1ccccc1C#CCCNc1ncnc(Cl)c1Cl [compound 365] | 60 to 100 | 60 to 100 | 60 to 100 |  | 
12 | FC(F)(F)c1cc(Cl)ccc1C#CCCNc1ncnc2ccccc12 [compound 178] | 60 to 100 | 60 to 100 | 60 to 100 |  | 
13 | COCc1ccccc1C#CCCNc1ncnc2ccc([N+](=O)[O-])cc12 [compound 331] | 0 to 60 | 0 to 60 | 60 to 100 |  | 
14 | COc1ccccc1C#CCCNc1ncnc2ccccc12 [compound 115] | 60 to 100 | 60 to 100 | 60 to 100 |  | 
15 | CC(C)CC#CCCNc1ncnc2sccc12 [compound 7, 4-(6-Methyl-3-heptynylamino)thieno[2,3-d]pyrimidine] | 60 to 100 | 60 to 100 | 60 to 100 |  | 
16 | CNC(=O)C(CC#Cc1ccccc1)Nc1ncnc2ccccc12 (centres unmarked) [compound 305] | 0 to 60 |  |  | 0 to 60 | 60 to 100
17 | COCc1ccc(C#CCCNc2ncnc3ccccc23)cc1 [compound 136] | 0 to 60 | 60 to 100 | 60 to 100 |  | 
18 | C(#CC1=CCCCC1)CCNc1ncnc2ccccc12 [compound 94] | 0 to 60 | 60 to 100 | 60 to 100 |  | 
19 | CC(C)(C)[Si](C)(C)OCc1nc(C#CCCNc2ncnc3sccc23)cs1 [compound 71] | 60 to 100 | 60 to 100 | 60 to 100 |  | 
20 | COCc1ccccc1C#CCCNc1ncnc2c(C)cc(C)cc12 [compound 341] | 0 to 60 | 0 to 60 | 60 to 100 |  | 
21 | C(#Cc1ccsc1)CCNc1ncnc2sccc12 [compound 54] | 0 to 60 |  | 60 to 100 |  | 
22 | FC(F)(F)c1ccccc1C#CCCNc1ncnc(Cl)c1Br [compound 367] | 0 to 60 | 60 to 100 | 60 to 100 |  | 

Row | SMILES | pest or weed control at 125 ppm (Phytophthora infestans) [%] | pest or weed control at 125 µg/mL (Sphaerotheca fuliginea) [%] | pest or weed control at 125 µg/mL [1] [%] | pest or weed control at 125 µg/mL (Sphaerotheca fuliginea; in Cucumis sativus) [%] | pest or weed control at 125 µg/mL ([1]; in Cucumis sativus) [%]
23 | N#Cc1cc(C(F)(F)F)ccc1C#CCCNc1ncnc2ccccc12 [compound 187] | 0 to 60 | 0 to 60 | 60 to 100 |  | 
24 | COCc1ccccc1C#CCCNc1ncnc2scc(C)c12 [compound 51] | 60 to 100 |  | 60 to 100 |  | 
25 | FC(F)(F)Oc1ccccc1C#CCCNc1ncnc2sccc12 [compound 32] | 60 to 100 |  | 60 to 100 |  | 
26 | FCc1ccccc1C#CCCNc1ncnc2sccc12 [compound 47] | 60 to 100 |  | 60 to 100 |  | 
27 | Cc1ccc(C#CCC(C)Nc2ncnc3sccc23)c(Cl)c1 (centres unmarked) [compound 255] | 60 to 100 | 60 to 100 |  |  | 
28 | COCc1ccccc1C#CCCNc1ncnc2sccc12 [compound 45] | 60 to 100 |  | 60 to 100 |  | 
29 | C(#Cc1ccoc1)CCNc1ncnc2sccc12 [compound 52] | 0 to 60 |  | 60 to 100 |  | 
30 | OCc1ccccc1C#CCCNc1ncnc2sccc12 [compound 44] | 60 to 100 |  | 60 to 100 |  | 
31 | CC(=O)Nc1ccccc1C#CCCNc1ncnc2ccccc12 [compound 160] | 0 to 60 |  | 0 to 60 |  | 
32 | FC(F)(F)Oc1ccc(C#CCCNc2ncnc3sccc23)cc1 [compound 34] | 60 to 100 |  | 60 to 100 |  | 
33 | CC(CC#Cc1c(Cl)cc(F)cc1Cl)Nc1ncnc2sccc12 (centres unmarked) [compound 261] |  | 60 to 100 | 60 to 100 |  | 
34 | C(#Cc1cccs1)CCNc1ncnc2sccc12 [compound 53] | 0 to 60 |  | 60 to 100 |  | 
35 | Cc1cc(C)c(C#CCC(C)Nc2ncnc3sccc23)c(C)c1 (centres unmarked) [compound 263] |  | 60 to 100 | 60 to 100 |  | 
36 | N#Cc1ccc(C#CCCNc2ncnc3sccc23)cc1 [compound 37] | 60 to 100 |  | 60 to 100 |  | 
37 | COCc1ccccc1C#CCCNc1ncnc2ccsc12 [compound 49] | 60 to 100 |  | 60 to 100 |  | 
38 | N#Cc1ccccc1C#CCCNc1ncnc2sccc12 [compound 35] | 60 to 100 |  | 60 to 100 |  | 
39 | COCc1ccccc1C#CCCNc1ncnc2c(C)csc12 [compound 50] | 60 to 100 |  | 60 to 100 |  | 
40 | C(#Cc1ccccn1)CCNc1ncnc2sccc12 [compound 55] | 60 to 100 |  | 60 to 100 |  | 
41 | O=Cc1ccccc1C#CCCNc1ncnc2sccc12 [compound 48] | 60 to 100 |  | 60 to 100 |  | 
42 | N#Cc1cccc(C#CCCNc2ncnc3sccc23)c1 [compound 36] | 60 to 100 |  | 60 to 100 |  | 
43 | CCOCc1ccccc1C#CCCNc1ncnc2sccc12 [compound 46] | 60 to 100 |  | 60 to 100 |  | 
44 | FC(F)(F)Oc1cccc(C#CCCNc2ncnc3sccc23)c1 [compound 33] | 60 to 100 |  | 60 to 100 |  | 
